PMC6406907, “A H2AX–CARP-1 Interaction Regulates Apoptosis Signaling Following DNA Damage” (Cancers, 2019)
No end group written: not given here. HA = not defined here

System: HeLa cells
Assay: MTT cell viability/growth inhibition, HeLa
Assay type: cell-based, human
Conditions: for cell viability: 10 μM, HeLa, mean of three independent experiments; for growth inhibition of EGFP-CARP-1 / EGFP-H2AX (1–35)-expressing cells: HeLa sublines vs EGFP-expressing counterparts
Protocol: Routine maintenance and culture of MDA-MB-468 (lacking estrogen receptor; ER and having mutant p53) human triple-negative breast cancer (TNBC) cells, human cervical cancer HeLa, human kidney cancer UOK 262, non-small-cell lung cancer H1975, and HCC827 cells was carried out essentially as described previously. Generation and characterization of MDA-MB-468 cells expressing reduced CARP-1 was described previously. The stable sublines were generated by transfecting the MDA-MB-468 and Hela cells with the pcDNA3 vector, pcDNA3-CARP-1 wild-type (WT)-myc-His clone 6.1.2, pcDNA3-CARP-1(Δ600–650)-myc-His, pcDNA3-EGFP, pcDNA3-EGFP-H2AX (1–35), or pcDNA3-EGFP-CARP-1 (636–650) plasmids, followed by selection in the presence of 800 μg/mL neomycin using described methods. The cell lysates from wild-type, untransfected cells, neomycin-resistant pools, or individual sublines were then subjected to MTT-based viability, confocal, immunoprecipitation (IP), and Western blot (WB) analyses as below.
The cell growth inhibition was assessed using an MTT assay following the established protocols described by us previously.
Here, we utilized human TNBC MDA-MB-468 and human cervical cancer HeLa cells to conduct an MTT-based dose-response analysis using Adriamycin and CFM compounds. […] Since Adriamycin, CFM-4, and CFM-4.16 have molecular masses of 543.3, 404.9, and 440.3, respectively, we chose to use an equimolar dose of each compound in the MTT assays. […] Prior reports established that phosphorylation of H2AX at serine 139 (γ-H2AX) is involved in DNA damage repair and apoptotic signaling by ATM/ATR and JNKs, respectively. Next, the MDA-MB-468, HeLa, and the kidney cancer UOK 262 cells were treated with a 10 μM dose of the CFM-4.16 or Adriamycin for various time periods. The cell lysates from the control, untreated, and treated cells were analyzed by WB for expression of CARP-1, phospho-JNK1/2, phospho-H2AX, and poly ADP ribose polymerase (PARP) proteins. […] The H2AX activation is also indicative of DNA damage and involves pro-apoptotic JNKs. Our data in Figure 1C and Figure S1B,C (Supplementary Materials) also show activation of JNKs; however, a robust JNK activation is co-incident with H2AX phosphorylation following treatments with Adriamycin or CFM-4.16.
Figure 8 Ectopic expression of TAT-CARP-1 (636–650) peptide results in enhanced viabilities of Adriamycin-treated cells. MDA-MB-468 (A) or HeLa (B) cells were pre-incubated with 300 μg/mL indicated peptides for 72 h, followed by treatments with the noted dose and time of Adriamycin. Determination of viable/live cells was carried out using an MTT assay as described in Section 2. The bar charts in panels A and B represent means of three and two independent experiments, respectively; bars, SE. (C) Indicated cells were either pre-incubated with 6 μg/mL indicated peptides for 72 h or not (Control), followed by treatments with Adriamycin as noted. Cells were then processed for immunofluorescence staining for TAT-CARP-1 peptide (red), γH2AX (green), and DAPI (blue) as detailed in Section 2 and Figure S3 (Supplementary Materials). Insets in C show enlarged areas of respective photomicrographs to indicate presence of TAT-CARP-1 peptide and γH2AX in respective columns. The insets in the top and middle rows of the merge column show co-localization of TAT-CARP-1 peptide, and γH2AX (magnification: 250×).
Figure S7. Disruption of H2AX interaction with CARP-1 results in enhanced viabilities of CFM-4, CFM-4.16, or Adriamycin-treated cells in part due to reduced γH2AX and apoptosis. (A,B,C) Indicated HeLa cell lines were treated with DMSO (Control), noted dose and time of Adriamycin, CFM-4, or CFM-4.16 compounds. Determination of viable/live cells was carried out by MTT assay as in methods. The columns in bar charts in panels A, B, C represent means of three independent […]
experiments; bars, SE. […]

Compound | cell viability | growth inhibition of CARP-1 (Δ600–650)-expressing cells (HeLa CARP-1 (Δ600–650) vs WT CARP-1-expressing counterparts, mean of three experiments) | growth inhibition of EGFP-CARP-1 / EGFP-H2AX (1–35)-expressing cells (mean of three experiments) | viability of Adriamycin-treated cells (HeLa pre-incubated with 300 μg/mL peptide, 72 h, then Adriamycin, vs EGFP, mean of two experiments)
COc1cccc2c1C(=O)c1c(O)c3c(c(O)c1C2=O)C[C@@](O)(C(=O)CO)C[C@@H]3O[C@H]1C[C@H](N)[C@H](O)[C@H](C)O1 [Adriamycin, doxorubicin, reference compound] | inhibited viabilities of both the cell lines in a time-dependent manner | resistant to inhibition by CFM-4 or ADR | resistant to inhibition by CFM-4.16 or ADR | –
O=C1N(Cc2ccccc2Cl)c2ccccc2C12NN=C(c1cccc(Cl)c1)S2 (centres unmarked) [CFM-4.16] | inhibited viabilities of both the cell lines in a time-dependent manner | – | resistant to inhibition by CFM-4.16 or ADR | –
EGFP-CARP-1 (636–650): EGFP-tagged fusion protein stably expressed in MDA-MB-468 and HeLa sublines (PKTMKVNDLRKELES; also: EGFP fusion kept, end not given here) | – | – | resistant to inhibition by CFM-4.16 or ADR | –
EGFP-H2AX (1–35): EGFP-tagged fusion protein stably expressed in MDA-MB-468 and HeLa sublines (MSGRGKTGGKARAKAKSRSSRAGLQFPVGRVHRLL; also: EGFP fusion, end not given here; UniProt P16104 1-35, looked up, fragment) | – | – | resistant to inhibition by CFM-4.16 or ADR | –
His-TAT-HA-CARP-1 (636–650): His-TAT-HA-tagged CARP-1 (636–650) peptide, >95% purity, commercially synthesized ({His-TAT-HA}-PKTMKVNDLRKELES; reading uncertain; UniProt Q8IX12 636-650, looked up, fragment) | – | – | – | moderate, statistically significant increase in viabilities
